Results reported in patent publication US11401271B2, “Fused heterocyclic compound, pyrazole-ring-containing fused heterocyclic compound, agricultural composition containing thereof, and method of using the composition” (SOUTH CHINA AGRICULTURAL UNIVERSITY, priority 2017, dated 2022).
Like-named read-outs stand apart in the source and are kept apart here.

Tests used:
Format in all cases: in vivo
[1] = system: Plutella xylostella; test: whole plant or invertebrate; settings: for mortality at 500 ppm: Plutella xylostella, read-out: Plutella xylostella Mortality (%) 500 ppm
How it was run: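 Cabbage leaf discs dipped 5 s in compound at 500 ppm (0.05% Tween-80 aqueous), air-dried, fed to about 35 2nd-instar larvae at 28° C., triplicate. Dead larvae counted after 24 h; mortality (%) corrected against Tween-80 control.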

[2] = system: Spodoptera exigua; test: whole plant or invertebrate; settings: for mortality at 500 ppm: Spodoptera exigua, 24 h, read-out: Spodoptera exigua Mortality (%) 500 ppm
How it was run: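 Cabbage leaf discs dipped 5 s in 500 ppm compound (0.05% Tween-80 aqueous), air-dried, fed to about 35 2nd-instar larvae at 28° C, three replicates. Deaths counted at 24 h; mortality corrected against Tween-80 control.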

[3] = system: Aphis craccivora; test: whole plant or invertebrate; settings: for mortality at 500 ppm: Aphis craccivora, 24 h, read-out: Aphis craccivora Mortality (%) 500 ppm
How it was run: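 Wingless adults feeding on bean sprouts were dipped with the sprouts for 5 s in 500 ppm compound in aqueous 0.05% Tween-80, air-dried, then held at 23° C. Dead aphids counted after 24 h, triplicate, with 0.05% Tween-80 as control. Mortality (%) = (control live − treated live)/control live × 100.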

[4] = system: Solenopsis invicta; test: whole plant or invertebrate; settings: water test tube poison-feeding; for mortality at 100 ppm: Solenopsis invicta
How it was run: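 Fire ants fed compound by water test-tube poison-feeding at 100 ppm in aqueous 0.05% Tween-80/5% honey (from 10 g/L DMSO stock), kept at 25 °C. Live and dead ants counted at 24 and 72 h; mortality (%) calculated relative to live ants in the untreated control.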

[5] = system: Bombyx mori L.; test: Toxicity test on 2nd-instar larvae of Bombyx mori L., leaf immersion feeding method; settings: 1000 ppm, 24 hours
Procedure: (1) Toxicity Test on 2nd-Instar Larvae of Bombyx mori L.
Bombyx mori L. is an important economic insect sensitive to pesticides in an agricultural ecosystem, and is also one of the non-target organisms of environmental ecology listed in pesticide registration of China. The 2nd-instar larvae of Bombyx mori L. were used as test objects and tested by using a leaf immersion feeding method.
Operation process: Samples were weighed accurately, and respectively added with 200 μL of dimethyl sulfoxide to prepare 10 g/L mother liquor which was diluted into a concentration of 1000 ppm with an aqueous solution containing 0.05% of Tween-80 during the test. Young cotyledons of mulberries were collected, washed and air-dried, immersed in a liquid medicine, taken out after 5 seconds, naturally air-dryed, and then transferred into a clean vessel. About 35 2nd -instar larvae of Bombyx mori L. were put into the vessel and fed at a constant temperature of 25° C. Each concentration was repeated 3 times, and an aqueous solution containing 0.05% of Tween-80 was used as a control group. After being treated for 24 hours, a number of dead Bombyx mori L. was counted, and a mortality (%) was calculated according to a formula that mortality (%)=(number of live larvae in the control group −number of treated live larvae)/number of live larvae in the control group * 100%.

[6] = system: Apis cernan; test: Toxicity test on adult worker bees of Apis cernan, small beaker method; settings: 500 ppm, 48 hours
Procedure: (2) Toxicity Test on Adult Worker Bees of Apis cernan.
Adult worker bees of Apis cernan having the same size were selected for test. The worker bees were collected from beekeeping boxes in the daystart of the test day and tested by using a small beaker method.
Operation process: A small amount of absorbent cotton was put into a 5 mL small beaker, 5 mL of a test liquid medicine (a concentration of 500 ppm) was dropped into the absorbent cotton, and stirred gently to make the absorbent cotton completely wet but not leached obviously, then the small beaker was put into a 500 mL large beaker, then 15 worker bees were put into the large beaker, and finally the large beaker was sealed with gauze. After treatment, the large beaker was placed in a dark room of an artificial climate box. After taking the medicine for 48 hours, a number of live and dead worker bees were investigated.

[7] = 24 h, read-out: Solenopsis invicta Mortality (%) 100 ppm 24 h, 100 ppm, 24 h
[8] = 72 h, read-out: Solenopsis invicta Mortality (%) 100 ppm 72 h, 100 ppm, 72 h

Row | Structure (SMILES) | mortality at 500 ppm [1] | mortality at 500 ppm [2] | mortality at 500 ppm [3] | mortality at 100 ppm [4, 7] | mortality at 100 ppm [4, 8] | Toxicity determination Bombyx mori L. Mortality (%) [5] | Toxicity determination Apis cernan Mortality (%) [6] | Plutella xylostella Mortality (%) 500 ppm ([1]; 500 ppm, 2nd-instar larvae, leaf immersion feeding) | Spodoptera exigua Mortality (%) 500 ppm ([2]; 500 ppm, 2nd-instar larvae, leaf immersion feeding, 24 hours) | Aphis craccivora Mortality (%) 500 ppm ([3]; 500 ppm, wingless adults, impregnation method, 24 hours) | Solenopsis invicta Mortality (%) 100 ppm 24 h ([4]; 100 ppm, 24 h) | Solenopsis invicta Mortality (%) 100 ppm 72 h ([4]; 100 ppm, 72 h)
1 | Nc1ccc2c(c1)-n1nc(C(F)(F)F)cc1NC2(C(F)(F)F)C(F)(F)F [Compound A10] | 86% | 100% | 100% | 20% | 87% | 15% | 12% | – | – | – | – | –
2 | Nc1ccc2c(c1)-n1nc(C(F)(F)F)c(-c3ccc(F)cc3)c1NC2(C(F)(F)F)C(F)(F)F [Compound A12] | 100% | 100% | 100% | 44% | 100% | 13% | 12% | – | – | – | – | –
3 | Nc1ccc2c(c1)-n1nc(C(F)(F)F)c(SC(F)(F)F)c1NC2(C(F)(F)F)C(F)(F)F [Compound A13] | 100% | 100% | 100% | 20% | 100% | 17% | 17% | – | – | – | – | –
4 | CC1(C)Nc2c(N)c(C#N)nn2-c2ccccc21 [Compound A15] | 100% | 100% | 100% | 24% | 100% | 8% | 5% | – | – | – | – | –
5 | CNC(=O)Nc1c(C#N)nn2c1NC(C)(C)c1ccccc1-2 [Compound A19] | 100% | 100% | 100% | 20% | 100% | 7% | 5% | – | – | – | – | –
6 | CC1(C)Nc2c([N+](=O)[O-])c(C#N)nn2-c2ccccc21 [Compound A21] | 100% | 100% | 100% | 24% | 100% | 0% | 6% | – | – | – | – | –
7 | N#Cc1cnn2c1NC(F)(CN)c1ccc(Cl)cc1-2 (centres unmarked) [Compound A22] | 96% | 100% | 100% | 30% | 97% | 0% | 3% | – | – | – | – | –
8 | N#Cc1cnn2c1NC(N)(CN)c1ccc(Cl)cc1-2 (centres unmarked) [Compound A23] | 100% | 100% | 100% | 34% | 100% | 0% | 5% | – | – | – | – | –
9 | C[S+]([O-])c1nn2c(c1C#N)NC(F)(C(F)(F)F)c1ccccc1-2 (centres unmarked) [Compound A26] | – | – | – | – | – | 7% | 10% | 100% | 100% | 100% | 45% | 100%
10 | CCOC(=O)c1c(SC)nn2c1NC(F)(C(F)(F)F)c1ccccc1-2 (centres unmarked) [Compound A27] | 100% | 100% | 100% | 30% | 100% | 10% | 15% | – | – | – | – | –
11 | CSc1nn2c(c1C(=O)N1CCN(C)CC1)NC(F)(C(F)(F)F)c1ccccc1-2 (centres unmarked) [Compound A30] | 100% | 100% | 100% | 40% | 100% | 8% | 8% | – | – | – | – | –
